Data taken from patent US10758522B2, “Small molecule analogs of the nemo binding peptide” (THE SCRIPPS RESEARCH INSTITUTE, priority 2015, dated 2020).
Entries after “also recorded” stand apart in the source; their conditions may differ.

What was measured:
[1] = tested on: mdx mice; assay: Chronic treatment of mdx mice (Duchenne muscular dystrophy model); type: in vivo, mouse; conditions: for tibialis anterior muscle pathology (H&E): SR compounds 30 mg/kg, 8K-NBD 10 mg/kg
Excerpt: Mdx mice develop normally at birth, and then undergo a massive myonecrosis starting at three weeks. Treatment of mdx mice with IKK/NF-kB inhibitors effectively reduces inflammation, block necrosis and increase muscle regeneration. Mdx mice were chronically treated with vehicle, SR12343, SR12460 or 8K-NBD starting from day 21, 3 times/week for 4 weeks. […] To determine if SR12343 and SR12460 improve muscle pathology, tibialis anterior (TA) muscle was stained with hematoxylin and eosin (H&E) to assess inflammatory infiltration, necrosis, central nucleation and fibrosis. […] Fiber size in centrally nucleated and non-centrally nucleated myofibers was also smaller in mice treated with SR12343 and 8K-NBD, indicating active reconstruction of myofiber during the regenerative phase.
To determine muscle strength post-treatment, grip strength test on forelimbs was performed 2 weeks and 4 weeks post-treatment.
HEK293 cells were grown in Dulbecco's Modification of Eagles Medium (with 4.5 g/L glucose and L-glutamine), supplemented with 10% fetal bovine serum, penicillin and streptomycin. Raw264.7 cells were cultured in RPMI-1640 media containing 10% heat-inactivated fetal bovine serum, penicillin and streptomycin. C57BL/10ScSn-Dmd^mdx/J and female C57BL/6 mice were purchased from the Jackson Laboratory. Mice were housed in the animal facilities of Scripps Fla. under constant temperature and humidity. Animal protocols used in this study were approved by Scripps Fla. Institutional Animal Care and Use Committees. Three week-old sex-matched mdx mice were dosed with SR12343 (30 mg/kg), […] (30 mg/kg), 8K-NBD peptide (10 mg/kg) or vehicle by intraperitoneal (i.p.) injection 3 times per week for 4 weeks. Mice were sacrificed at 7 weeks of age by carbon dioxide inhalation and tibialis anterior was collected for histological analysis.
Seven week-old treated or untreated mdx mice were measured for forelimb grip strength using a digital grip strength meter paired with a metal grid (Bioseb). Mice were allowed to grip the metal grid tightly and readings were obtained by gently pulling the tail backward until release. Five sequential measurements were performed and the average force was calculated.
Tissues fixed in 10% neutral buffered formalin (NBF) overnight were imbedded in paraffin. Tissue was sectioned at […] using a microtome. H&E staining was conducted following a standard protocol (REF).

[2] = Pharmacokinetics study after ip injection; type: in vivo; conditions: mice, 10 mg/kg ip, 2 hr
Experimental: To determine the stability of the NBD mimetics in vivo, the pharmacokinetics of the compounds was determined in serum following ip injection.
The pharmacokinetic profiles of the NBD mimetics were determined in male C57BL/6J mice (n=3). The drugs were formulated in 10:10:80 of DMSO:Tween 80:water and were dosed by intraperitoneal injection at a final dose of 10 mg/kg. Blood, brain, muscle, spleen, and liver were collected 2 hr post-treatment and were analyzed by mass spectrometry by following the protocol described in ref. 215 (42).

[3] = tested on: IL-6; assay: IL-6 ELISA in LPS-stimulated Raw 264.7 cells; type: cell-based, mouse; conditions: Raw 264.7, 1 ug/ml LPS, supernatant at 24 hr
Experimental: To confirm the qRT-PCR result, LPS-mediated IL-6 production was analyzed in Raw 264.7 cells by ELISA. […] Moreover, SR11481 appears to work more efficiently at a lower concentration around 25 μM. Taken together, four lead compounds were identified through seven rounds of optimization and modification.
Enzyme-Linked Immunosorbent Assay (ELISA). Raw264.7 cells were grown in a 96-well plate and pretreated with vehicle, IKKi VII (2 uM) and small molecules (at indicated concentration) for 1 hr, followed by the stimulation with 1 ug/ml of LPS. Supernatant was collected 24 hr later for ELISA analysis. IL-6 concentration was measured using a mouse IL-6 ELISA kit (BD) according to the manufacturer's instructions.

[4] = tested on: IKKβ-NEMO interaction; assay: Immunoprecipitation of NEMO and IKKβ immunoblot in Raw 264.7 macrophages and HEK293 cells; type: cell-based; conditions: Raw 264.7 macrophages / HEK293; mimetics 100 μM, 8K-NBD 400 μM
Experimental: The NBD mimetics reduce the interaction between IKKg (NEMO) and IKKß. The indicated concentrations of the drugs were added to HEK 293 or Raw 264.7 cells and cell extracts prepared 30 minutes later. Following immunoprecipitation (IP) of NEMO, the Western was probed for IKKß.
After treatment with the mimetics or NBD peptide, NEMO was immunoprecipitated by an anti-NEMO antibody and IKKβ was immunoblotted to determine the binding of IKKβ to NEMO.
HEK293 or Raw264.7 cells were seeded at 1×10^6 cells/well in 6-well plates and treated with vehicle, small molecule or NBD peptide for indicated time. Cells were lysed in NP-40 lysis buffer supplemented with 1× protease inhibitor cocktails (sigma). Protein was immunoprecipitated by incubating 150 μg of lysate with 1 μg of anti-NEMO antibody (Santa Cruz) on a rotating shaker at 4° C. for 4 hrs, followed by incubation with 20 ul of Protein A agarose beads (ThermoFisher) for 1 hr. Beads were washed in NP40 buffer 3 times and PBS once. Protein was then denatured in SDS-sample buffer and resolved by MINI-PROTEAN TGX 4-15% SDS-PAGE. Anti-IKKβ (1:1000 CST) was used to assess binding of IKKβ to NEMO and anti-NEMO (1:1000 CST) or IgG were used to as a loading control.

SMILES | therapeutic benefit of chronic treatment of mdx mice ([1]; chronic treatment with the ZINC compounds) | forelimb grip strength ([1]; 2 weeks post-treatment) | expression of eMyHC and Pax 7 in TA muscle (qRT-PCR) ([1]; ip 3 times/week for 4 weeks) | fiber size in centrally nucleated and non-centrally nucleated myofibers ([1]; ip 3 times/week for 4 weeks) | tibialis anterior muscle pathology (H&E) ([1]; ip 3 times/week for 4 weeks) | stability in serum after ip injection ([2]; 10 mg/kg) | LPS-mediated mIL-6 production (ELISA) [3] | disruption of IKKβ-NEMO interaction (NEMO IP, IKKβ blot) [4] | stability in serum after ip injection [2]
Nc1ncccc1C(=O)OCC(=O)Nc1ccc(Cl)cc1F [NBDA-1, 2-((4-chloro-2-fluorophenyl)amino)-2-oxoethyl 2-aminonicotinate] | showed no therapeutic benefit |  |  |  |  |  |  |  | 
O=C(CNc1ccc(Cl)cn1)NCCc1cccc(Br)c1 [SR12343, N-(3-bromophenethyl)-2-((5-chloropyridin-2-yl)amino)acetamide] |  | significantly improved forelimb strength after 2 weeks of treatment | increasing expression of eMyHC as well as Pax 7 | smaller | most significant pathological improvement | moderate stability; also recorded: less stable compared to SR12460 | suppressed mIL-6 production in a dose-dependent manner | strongest activity; also recorded: disruption of the association between NEMO and IKK-β | 
O=C(CNCCc1cc(F)cc(F)c1)Nc1ccc(Cl)cn1 [SR12460, N-(5-chloropyridin-2-yl)-2-((3,5-difluorophenethyl)amino)acetamide] |  |  | increased eMyHC expression, but to a lower extent compared to SR12343 |  | partly improved muscle pathology |  | decreasing by half at 25 μM | disruption of the association between NEMO and IKK-β | significant stability 2 hr after injection
